Data taken from US10793526B2, “Hydantoin derivative compounds, methods of use and methods of treatment” (University of South Florida, priority 2016, dated 2020).

Key:
[1] = system: methicillin-resistant S. aureus (MRSA, ATCC 33591); experiment: Minimum inhibitory concentration (MIC) assay, MRSA; type: cell-based, Staphylococcus aureus; conditions: Gram positive, ATCC 33591, 16 h incubation; for MIC: Staphylococcus aureus, read-out: MIC (μg/mL) MRSA
Description: (§1) Minimum inhibitory concentrations (MICs) assay.^2
(§2) All compounds were tested against six different bacteria strains: methicillin-resistant S. aureus (MRSA, ATCC 33591), E. coli (ATCC 25922), methicillin-resistant S. epidermidis (MRSE, RP62A), K. pneumoniae (ATCC 13383), vancomycin-resistant Enterococcus faecalis (VREF, ATCC 700802), P. aeruginosa (ATCC 27853). One colony of each bacteria was inoculated in 4 mL TSB buffer at 37° C. overnight, which was then diluted 100 times, and the bacteria were allowed to grow to the mid-logarithmic phase. 50 μL hydantoin compounds in 2-fold serial dilution of TSB were added in the 96-well plate, then 50 μL diluted bacterial in TSB medium (1×10^6 CFU/mL) was added to each well. After 16 h of incubation at 37° C., the absorption at 600 nm wavelength on a Biotek Synergy HT microtiter plate reader was recorded. Minimum inhibitory concentrations were determined as the lowest concentrations that inhibited bacteria growth completely.

[2] = system: methicillin-resistant S. epidermidis (MRSE, RP62A); experiment: Minimum inhibitory concentration (MIC) assay, MRSE; type: cell-based, Staphylococcus epidermidis; conditions: Gram positive, 16 h incubation; for MIC: Staphylococcus epidermidis, MRSE, read-out: MIC (μg/mL) MRSE
Description: as §1, §2

[3] = system: vancomycin-resistant Enterococcus faecalis (VREF, ATCC 700802); experiment: Minimum inhibitory concentration (MIC) assay, VREF; type: cell-based; conditions: 16 h incubation; for MIC: Enterococcus faecalis, ATCC700802, Gram positive, read-out: MIC (μg/mL) VREF; for MIC (μg/mL) VREF: Gram positive
Description: as §1, §2

E. coli (ATCC 25922) = experiment: Minimum inhibitory concentration (MIC) assay, E. coli; type: cell-based, Escherichia coli; conditions: 16 h incubation; for MIC: Escherichia coli, ATCC25922, Gram negative, read-out: MIC (μg/mL) E. coli; for MIC (μg/mL) E. coli: Gram negative
Description: as §1, §2

[4] = system: P. aeruginosa (ATCC 27853); experiment: Minimum inhibitory concentration (MIC) assay, P. aeruginosa; type: cell-based, Pseudomonas aeruginosa; conditions: for MIC: Pseudomonas aeruginosa, ATCC27853, read-out: MIC (μg/mL) P.A.; for MIC / MIC (μg/mL) P.A.: Gram negative, ATCC 27853, 16 h incubation
Description: as §1, §2

[5] = system: K. pneumoniae (ATCC 13383); experiment: Minimum inhibitory concentration (MIC) assay, K. pneumoniae; type: cell-based, Klebsiella pneumoniae; conditions: 16 h incubation; for MIC: Klebsiella pneumoniae, ATCC13383, Gram negative, read-out: MIC (μg/mL) K.P.; for MIC (μg/mL) K.P.: Gram negative
Description: as §1, §2

[6] = system: panel of Gram-positive and Gram-negative bacteria; experiment: Antimicrobial activity against the whole panel of bacteria; type: cell-based; conditions: for antimicrobial activity across the tested bacterial strains: all tested strains; for antibacterial activity of compounds with HPLC RT values less than 26 min: statement relating activity to retention time
Description: as §1, §2

Row | Compound | MIC [1] | MIC [2] | MIC [3] | MIC (E. coli (ATCC 25922)) | MIC [4] | MIC [5] | MIC (μg/mL) MRSA [1] | MIC (μg/mL) MRSE [2] | MIC (μg/mL) VREF [3] | MIC (μg/mL) E. coli (E. coli (ATCC 25922)) | MIC (μg/mL) P.A. [4] | MIC (μg/mL) K.P. [5] | MIC ([6]; range over most strains of the panel, read-out: MICs against most of bacteria) | antimicrobial activity across the tested bacterial strains [6] | antibacterial activity of compounds with HPLC RT values less than 26 min [6] | activity toward Pseudomonas aeruginosa ([4]; under the tested condition)
1 | CCCCCCCCCC(=O)N[C@@H](CCCCN)CN1CC(=O)N(CC)C1=O [Compound 1, (S)—N-(6-amino-1-(3-ethyl-2,4-dioxoimidazolidin-1-yl)hexan-2-yl)decanamide] | > 50 µg/mL | > 50 µg/mL | > 50 µg/mL | > 50 µg/mL | > 50 µg/mL | > 50 µg/mL | – | – | – | – | – | – | – | doesn't exhibit any activity | no apparent antibacterial activity | –
2 | CCCCCCCCCCCCCC(=O)N[C@@H](CCCCN)CN1CC(=O)N(c2cccc(Cl)c2)C1=O [Compound 23, (S)—N-(6-amino-1-(3-(3-chlorophenyl)-2,4-dioxoimidazolidin-1-yl)hexan-2-yl)tetradecanamide] | 12.5 µg/mL | 12.5 µg/mL | 12.5 µg/mL | > 50 µg/mL | > 50 µg/mL | > 50 µg/mL | – | – | – | – | – | – | – | – | – | –
3 | CCCCCCCCCCCC(=O)N[C@@H](Cc1ccccc1)CN1CC(=O)N(c2cccc(Cl)c2)C1=O [Compound 25, (S)—N-(1-(3-(3-chlorophenyl)-2,4-dioxoimidazolidin-1-yl)-3-phenylpropan-2-yl)dodecanamide] | > 50 µg/mL | > 50 µg/mL | > 50 µg/mL | > 50 µg/mL | > 50 µg/mL | > 50 µg/mL | – | – | – | – | – | – | – | fails to show any antimicrobial activity | no apparent antibacterial activity | –
4 | O=C1CN(/N=C/c2ccc([N+](=O)[O-])o2)C(=O)N1 [Compound 26, nitrofurantoin, reference compound] | 12.5 µg/mL | 6.25 µg/mL | 12.5 µg/mL | 6.25 µg/mL | > 50 µg/mL | 25 µg/mL | – | – | – | – | – | – | 6.25 to 25 µg/mL | – | – | –
5 | CCCCCCCCCCCCCCCC(=O)N[C@@H](CCCCN)CN1CC(=O)N(c2ccc(OC)cc2)C1=O [Compound 20, (S)—N-(6-amino-1-(3-(4-methoxyphenyl)-2,4-dioxoimidazolidin-1-yl)hexan-2-yl)palmitamide] | 3.12 µg/mL | 6.25 µg/mL | 6.25 µg/mL | > 50 µg/mL | > 50 µg/mL | > 50 µg/mL | – | – | – | – | – | – | – | – | – | –
6 | CCCCCCCCCCCC(=O)N[C@@H](CCCCN)CN1CC(=O)N(C23CC4CC(CC(C4)C2)C3)C1=O [Compound 14, N—((S)-1-(3-((3R,5R,7R)-adamantan-1-yl)-2,4-dioxoimidazolidin-1-yl)-6-aminohexan-2-yl) dodecanamide] | – | – | – | – | – | – | 6.25 µg/mL | 6.25 µg/mL | 6.25 µg/mL | 12.5 µg/mL | >50 µg/mL | >50 µg/mL | – | – | – | –
7 | CCCCCCCCCCCCCCCC(=O)N[C@@H](CCCCN)CN1CC(=O)N(CC)C1=O [Compound 4, (S)—N-(6-amino-1-(3-ethyl-2,4-dioxoimidazolidin-1-yl)hexan-2-yl)palmitamide] | 3.12 µg/mL | 3.12 µg/mL | 3.12 µg/mL | 3.12 µg/mL | > 50 µg/mL | 12.5 µg/mL | – | – | – | – | – | – | – | – | no apparent antibacterial activity | abolishes its activity
8 | CCCCCCCCCCCCCCCC(=O)N[C@@H](CCCCN)CN1CC(=O)N(c2cccc(Cl)c2)C1=O [Compound 24, (S)—N-(6-amino-1-(3-(3-chlorophenyl)-2,4-dioxoimidazolidin-1-yl)hexan-2-yl)palmitamide] | 12.5 µg/mL | 12.5 µg/mL | 12.5 µg/mL | > 50 µg/mL | > 50 µg/mL | > 50 µg/mL | – | – | – | – | – | – | – | – | – | –

Now from value to molecule, other results behind:

Row | MIC [1] | MIC [2] | MIC [3] | MIC (E. coli (ATCC 25922)) | MIC [4] | MIC [5] | MIC (μg/mL) MRSA [1] | MIC (μg/mL) MRSE [2] | MIC (μg/mL) VREF [3] | MIC (μg/mL) E. coli (E. coli (ATCC 25922)) | MIC (μg/mL) P.A. [4] | MIC (μg/mL) K.P. [5] | MIC ([6]; range over most strains of the panel, read-out: MICs against most of bacteria) | Compound | antimicrobial activity across the tested bacterial strains [6] | antibacterial activity of compounds with HPLC RT values less than 26 min [6] | activity toward Pseudomonas aeruginosa ([4]; under the tested condition)
9 | 3.12 µg/mL | 25 µg/mL | 25 µg/mL | > 50 µg/mL | > 50 µg/mL | > 50 µg/mL | – | – | – | – | – | – | – | CCCCCCCCCCCCCCCC(=O)N[C@@H](CCCCN)CN1CC(=O)N(C2CCCCC2)C1=O [Compound 12, (S)—N-(6-amino-1-(3-cyclohexyl-2,4-dioxoimidazolidin-1-yl)hexan-2-yl)palmitamide] | – | – | –
10 | 6.25 µg/mL | 6.25 µg/mL | 6.25 µg/mL | > 50 µg/mL | > 50 µg/mL | > 50 µg/mL | – | – | – | – | – | – | – | CCCCCCCCCCCCCCCC(=O)N[C@@H](CCCCN)CN1CC(=O)N(CCCC)C1=O [Compound 8, (S)—N-(6-amino-1-(3-butyl-2,4-dioxoimidazolidin-1-yl)hexan-2-yl)palmitamide] | – | – | –
11 | – | – | – | – | – | – | >50 µg/mL | >50 µg/mL | >50 µg/mL | >50 µg/mL | >50 µg/mL | >50 µg/mL | – | CCCCCCCCCCCCCCCC(=O)N[C@@H](CCCCN)CN1CC(=O)N(C23CC4CC(CC(C4)C2)C3)C1=O [Compound 16, N—((S)-1-(3-((3R,5R,7R)-adamantan-1-yl)-2,4-dioxoimidazolidin-1-yl)-6-aminohexan-2-yl) palmitamide] | – | – | –
12 | 3.12 µg/mL | 6.25 µg/mL | 6.25 µg/mL | 12.5 µg/mL | > 50 µg/mL | 6.25 µg/mL | – | – | – | – | – | – | – | CCCCCCCCCCCCCC(=O)N[C@@H](CCCCN)CN1CC(=O)N(C2CCCCC2)C1=O [Compound 11, (S)—N-(6-amino-1-(3-cyclohexyl-2,4-dioxoimidazolidin-1-yl)hexan-2-yl)tetradecanamide] | – | – | –
13 | 25 µg/mL | > 50 µg/mL | > 50 µg/mL | 12.5 µg/mL | > 50 µg/mL | 25 µg/mL | – | – | – | – | – | – | – | CCCCCCCCCC(=O)N[C@@H](CCCCN)CN1CC(=O)N(C2CCCCC2)C1=O [Compound 9, (S)—N-(6-amino-1-(3-cyclohexyl-2,4-dioxoimidazolidin-1-yl)hexan-2-yl)decanamide] | starts to show activity toward a few bacterial strains | no apparent antibacterial activity | –
14 | – | – | – | – | – | – | 3.12 µg/mL | 3.15 µg/mL | 6.25 µg/mL | >50 µg/mL | >50 µg/mL | >50 µg/mL | – | CCCCCCCCCCCCCC(=O)N[C@@H](CCCCN)CN1CC(=O)N(C23CC4CC(CC(C4)C2)C3)C1=O [Compound 15, N—((S)-1-(3-((3R,5R,7R)-adamantan-1-yl)-2,4-dioxoimidazolidin-1-yl)-6-aminohexan-2-yl) tetradecanamide] | – | – | –
15 | > 50 µg/mL | > 50 µg/mL | > 50 µg/mL | > 50 µg/mL | > 50 µg/mL | > 50 µg/mL | – | – | – | – | – | – | – | CCCCCCCCCC(=O)N[C@@H](CCCCN)CN1CC(=O)N(CCCC)C1=O [Compound 5, (S)—N-(6-amino-1-(3-butyl-2,4-dioxoimidazolidin-1-yl)hexan-2-yl)decanamide] | doesn't have any antimicrobial activity | no apparent antibacterial activity | –
16 | 6.25 µg/mL | 6.25 µg/mL | 6.25 µg/mL | 6.25 µg/mL | > 50 µg/mL | 25 µg/mL | – | – | – | – | – | – | – | CCCCCCCCCCCCCC(=O)N[C@@H](CCCCN)CN1CC(=O)N(c2ccc(OC)cc2)C1=O [Compound 19, (S)—N-(6-amino-1-(3-(4-methoxyphenyl)-2,4-dioxoimidazolidin-1-yl)hexan-2-yl)tetradecanamide] | – | – | –
17 | > 50 µg/mL | > 50 µg/mL | > 50 µg/mL | > 50 µg/mL | > 50 µg/mL | > 50 µg/mL | – | – | – | – | – | – | – | CCCCCCCCCC(=O)N[C@@H](CCCCN)CN1CC(=O)N(c2ccc(OC)cc2)C1=O [Compound 17, (S)—N-(6-amino-1-(3-(4-methoxyphenyl)-2,4-dioxoimidazolidin-1-yl)hexan-2-yl)decanamide] | – | no apparent antibacterial activity | –
18 | 6.25 µg/mL | 6.25 µg/mL | 6.25 µg/mL | 6.25 µg/mL | > 50 µg/mL | 12.5 µg/mL | – | – | – | – | – | – | – | CCCCCCCCCCCCCC(=O)N[C@@H](CCCCN)CN1CC(=O)N(CCCC)C1=O [Compound 7, (S)—N-(6-amino-1-(3-butyl-2,4-dioxoimidazolidin-1-yl)hexan-2-yl)tetradecanamide] | – | – | –
